# Assays:
# [1] = tested on: Staphylococcus aureus; test: Antimicrobial activity against methicillin-susceptible Staphylococcus aureus by broth microdilution method; assay type: functional
# [2] = tested on: Staphylococcus aureus; test: Antimicrobial activity against methicillin-resistant Staphylococcus aureus by broth microdilution method; assay type: functional
# [3] = tested on: Staphylococcus epidermidis; test: Antimicrobial activity against methicillin-susceptible Staphylococcus epidermidis by broth microdilution method; assay type: functional
# [4] = tested on: Staphylococcus epidermidis; test: Antimicrobial activity against methicillin-resistant Staphylococcus epidermidis by broth microdilution method; assay type: functional
# [5] = tested on: Enterococcus faecalis; test: Antimicrobial activity against vancomycin-susceptible Enterococcus faecalis by broth microdilution method; assay type: functional
# [6] = tested on: Enterococcus faecalis; test: Antimicrobial activity against vancomycin-resistant Enterococcus faecalis by broth microdilution method; assay type: functional
# [7] = tested on: Enterococcus faecium; test: Antimicrobial activity against vancomycin-susceptible Enterococcus faecium by broth microdilution method; assay type: functional
# [8] = tested on: Enterococcus faecium; test: Antimicrobial activity against vancomycin-resistant Enterococcus faecium by broth microdilution method; assay type: functional
# [9] = tested on: Streptococcus pneumoniae; test: Antimicrobial activity against penicillin-susceptible Streptococcus pneumoniae by broth microdilution method; assay type: functional
# [10] = tested on: Streptococcus pneumoniae; test: Antimicrobial activity against penicillin-intermediate Streptococcus pneumoniae by broth microdilution method; assay type: functional
# [11] = tested on: Streptococcus pneumoniae; test: Antimicrobial activity against penicillin-resistant Streptococcus pneumoniae by broth microdilution method; assay type: functional
# [12] = tested on: Streptococcus agalactiae; test: Antimicrobial activity against Streptococcus agalactiae by broth microdilution method; assay type: functional
# [13] = tested on: Clostridioides difficile; test: Antimicrobial activity against Clostridium difficile by broth microdilution method; assay type: functional
# [14] = tested on: Escherichia coli; test: Antimicrobial activity against Escherichia coli by broth microdilution method; assay type: functional
# [15] = tested on: Klebsiella pneumoniae; test: Antimicrobial activity against Klebsiella pneumoniae by broth microdilution method; assay type: functional
# [16] = tested on: Klebsiella pneumoniae; test: Antimicrobial activity against ESBL-production Klebsiella pneumoniae by broth microdilution method; assay type: functional
# [17] = tested on: Serratia marcescens; test: Antimicrobial activity against Serratia marcescens by broth microdilution method; assay type: functional
# [18] = tested on: Proteus mirabilis; test: Antimicrobial activity against Proteus mirabilis by broth microdilution method; assay type: functional
# [19] = tested on: Acinetobacter baumannii; test: Antimicrobial activity against Acinetobacter baumannii by broth microdilution method; assay type: functional
# [20] = tested on: Acinetobacter baumannii; test: Antimicrobial activity against multiple dug-resistant Acinetobacter baumannii by broth microdilution method; assay type: functional
# [21] = tested on: Pseudomonas aeruginosa; test: Antimicrobial activity against Pseudomonas aeruginosa by broth microdilution method; assay type: functional
# [22] = tested on: Burkholderia cepacia; test: Antimicrobial activity against Burkholderia cepacia by broth microdilution method; assay type: functional
# [23] = tested on: Haemophilus influenzae; test: Antimicrobial activity against Haemophilus influenzae by broth microdilution method; assay type: functional
# [24] = Cytotoxicity against HeLa cells after 3 days by MTS assay; assay type: cell-based; settings: human
# [25] = Protein binding to serum; assay type: ADME, cell-free; settings: read-out: PB (converted)
smiles,measurement,setting,value
c1cc2cc(-c3ccc(-c4cc5ccc(C6=NCCN6)cc5[nH]4)cc3)[nH]c2cc1C1=NCCN1,MIC50,[1],0.12 µg/mL
same,MIC90,[1],0.25 µg/mL
same,MIC,[2],0.06 µg/mL
same,MIC50,[2],0.06 µg/mL
same,MIC90,[2],0.12 µg/mL
same,MIC50,[3],0.008 µg/mL
same,MIC90,[3],0.03 µg/mL
same,MIC50,[4],0.015 µg/mL
same,MIC90,[4],0.03 µg/mL
same,MIC50,[5],0.06 µg/mL
same,MIC90,[5],0.06 µg/mL
same,MIC50,[6],0.03 µg/mL
same,MIC90,[6],0.06 µg/mL
same,MIC50,[7],0.004 µg/mL
same,MIC90,[7],0.015 µg/mL
same,MIC50,[8],0.004 µg/mL
same,MIC90,[8],0.004 µg/mL
same,MIC50,[9],0.015 µg/mL
same,MIC90,[9],0.03 µg/mL
same,MIC50,[10],0.015 µg/mL
same,MIC90,[10],0.12 µg/mL
same,MIC,[11],0.03 µg/mL
same,MIC50,[11],0.03 µg/mL
same,MIC90,[11],0.06 µg/mL
same,MIC,[12],0.03 µg/mL
same,MIC50,[12],0.03 µg/mL
same,MIC90,[12],0.03 µg/mL
same,MIC50,[13],0.06 µg/mL
same,MIC90,[13],0.12 µg/mL
same,MIC50,[14],0.12 µg/mL
same,MIC90,[14],0.5 µg/mL
same,MIC50,[15],2 µg/mL
same,MIC90,[15],8 µg/mL
same,MIC50,[16],1 µg/mL
same,MIC90,[16],> 16 µg/mL
same,MIC50,[17],1 µg/mL
same,MIC90,[17],2 µg/mL
same,MIC50,[18],> 16 µg/mL
same,MIC90,[18],> 16 µg/mL
same,MIC50,[19],8 µg/mL
same,MIC90,[19],> 16 µg/mL
same,MIC50,[20],> 16 µg/mL
same,MIC50,[21],> 16 µg/mL
same,MIC90,[21],> 16 µg/mL
same,MIC,[22],≤ 0.015 µg/mL
same,MIC50,[22],≤ 0.015 µg/mL
same,MIC90,[22],0.06 µg/mL
same,MIC50,[23],4 µg/mL
same,MIC90,[23],> 16 µg/mL
same,CC50 at 72 h,[24],33 µg/mL
same,fraction unbound,[25],0.75

# From ChEMBL document CHEMBL1671722, “Comparative in vitro activity profiles of novel bis-indole antibacterials against gram-positive and gram-negative clinical isolates” (Antimicrob Agents Chemother, 2010)
